{"source": "paper PMC8449657", "about": "“Identification of a self‐sufficient cytochrome P450 monooxygenase from Cupriavidus pinatubonensis JMP134 involved in 2‐hydroxyphenylacetic acid catabolism, via homogentisate pathway” (Microbial Biotechnology, 2021)", "target": "T1, OhpA (Cupriavidus pinatubonensis, UniProt Q46QG0)", "T1 construct": "gene Reut_B5278; full length, 783 aa, untagged as far as told; pBS1-ohpA (PBAD) expressed in Pseudomonas putida KT2440, assayed in cell extract", "T1 sequence (Q46QG0 1-783)": "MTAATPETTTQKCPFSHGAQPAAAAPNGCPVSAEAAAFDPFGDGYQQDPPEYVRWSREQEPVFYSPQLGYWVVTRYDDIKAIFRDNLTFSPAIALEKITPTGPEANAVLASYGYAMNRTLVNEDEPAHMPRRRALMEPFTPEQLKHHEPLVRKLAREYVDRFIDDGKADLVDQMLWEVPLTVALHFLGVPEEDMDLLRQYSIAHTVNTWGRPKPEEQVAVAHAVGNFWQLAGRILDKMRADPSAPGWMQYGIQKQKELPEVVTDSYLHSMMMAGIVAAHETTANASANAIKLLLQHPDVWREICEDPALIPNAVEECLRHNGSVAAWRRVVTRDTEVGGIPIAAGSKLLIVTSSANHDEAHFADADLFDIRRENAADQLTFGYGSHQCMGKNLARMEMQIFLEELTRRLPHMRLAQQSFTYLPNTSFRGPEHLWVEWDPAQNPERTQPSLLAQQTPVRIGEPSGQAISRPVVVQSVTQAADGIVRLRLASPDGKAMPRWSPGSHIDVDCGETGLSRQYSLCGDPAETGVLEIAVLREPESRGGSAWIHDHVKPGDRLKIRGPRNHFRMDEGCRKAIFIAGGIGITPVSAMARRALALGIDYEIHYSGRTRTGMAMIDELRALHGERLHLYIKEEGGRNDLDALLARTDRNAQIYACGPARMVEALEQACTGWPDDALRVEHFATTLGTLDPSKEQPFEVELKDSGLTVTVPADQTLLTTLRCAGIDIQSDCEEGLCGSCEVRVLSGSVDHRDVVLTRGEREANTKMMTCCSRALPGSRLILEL", "assay": "substrate-dependent NADH oxidation at […] nm in extract of P. putida KT2440 pBS1-ohpA", "type": "biochemical", "details": "0.2 mM NADH, 100 uM 2-HPA, 1 uM FAD, 35 mM Tris/acetate pH 7.5", "data": [{"smiles": "NC(=O)C1=CN([C@@H]2O[C@H](COP(=O)(O)OP(=O)(O)OC[C@H]3O[C@@H](n4cnc5c(N)ncnc54)[C@H](O)[C@@H]3O)[C@@H](O)[C@H]2O)C=CC1", "note": "[NADH]", "values": [{"measurement": "substrate-dependent NADH oxidation at 340 nm in extract of P. putida KT2440 pBS1", "result": "we assayed the substrate‐dependent NADH oxidation in cell extracts of P. putida KT2440 harbouring pBS1‐ohpA"}]}]}
